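How tested: cells in 96-well plates exposed to compound for 48 hours at five concentrations. GI50: concentration for 50% inhibition of growth. The concentration for full growth arrest is given as TGI.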
Legend:
Assay in all cases: NCI-60 cell line screen, 48 h
HCT-116 colon = system: HCT-116 colon
SF-268 CNS = system: SF-268 CNS
HT29 colon = system: HT29 colon
DU-145 prostate = system: DU-145 prostate
M14 melanoma = system: M14 melanoma
NCI-H226 lung = system: NCI-H226 lung
TK-10 renal = system: TK-10 renal
MOLT-4 leukemia = system: MOLT-4 leukemia
EKVX NSCLC = system: EKVX NSCLC
SW-620 colon = system: SW-620 colon
NCI/ADR-RES ovarian = system: NCI/ADR-RES ovarian
T-47D breast = system: T-47D breast
HS 578T breast = system: HS 578T breast
HOP-62 NSCLC = system: HOP-62 NSCLC
MDA-MB-435 = system: MDA-MB-435
BT-549 breast = system: BT-549 breast
SF-539 CNS = system: SF-539 CNS
OVCAR-4 ovarian = system: OVCAR-4 ovarian
NCI-H23 lung = system: NCI-H23 lung
RXF 393 renal = system: RXF 393 renal
NCI-H460 lung = system: NCI-H460 lung
MDA-MB-231 breast = system: MDA-MB-231 breast
HCT-15 colon = system: HCT-15 colon
SK-MEL-2 melanoma = system: SK-MEL-2 melanoma
CAKI-1 renal = system: CAKI-1 renal
SR leukemia = system: SR leukemia
SN12C renal = system: SN12C renal

COC(=O)c1cc(O)c2c(c1C(=O)OC)C[C@H]1[C@@H]3CC=C4C[C@@H](O)CC[C@]4(C)[C@H]3CC[C@]21C
GI50 (HCT-116 colon): 3.09 µM | TGI (HCT-116 colon): 14.6 µM | GI50 (SF-268 CNS): 3.13 µM | TGI (SF-268 CNS): 13 µM | GI50 (HT29 colon): 2.74 µM | TGI (HT29 colon): 7 µM | GI50 (DU-145 prostate): 3.89 µM | TGI (DU-145 prostate): 16.1 µM | GI50 (M14 melanoma): 3.47 µM | TGI (M14 melanoma): 18.7 µM | GI50 (NCI-H226 lung): 3.78 µM | TGI (NCI-H226 lung): 20 µM | GI50 (TK-10 renal): 3.83 µM | TGI (TK-10 renal): 11.8 µM | GI50 (MOLT-4 leukemia): 2.22 µM | TGI (MOLT-4 leukemia): 5.56 µM | GI50 (EKVX NSCLC): 3.29 µM | TGI (EKVX NSCLC): 21.7 µM | GI50 (SW-620 colon): 3.48 µM | TGI (SW-620 colon): 17.6 µM | GI50 (NCI/ADR-RES ovarian): 3.61 µM | TGI (NCI/ADR-RES ovarian): 24.4 µM | GI50 (T-47D breast): 1.51 µM | TGI (T-47D breast): 6.91 µM | GI50 (HS 578T breast): 2.78 µM | TGI (HS 578T breast): 19.5 µM | GI50 (HOP-62 NSCLC): 2.24 µM | TGI (HOP-62 NSCLC): 6.27 µM | GI50 (MDA-MB-435): 3.01 µM | TGI (MDA-MB-435): 20.6 µM | GI50 (BT-549 breast): 2.29 µM | TGI (BT-549 breast): 6.98 µM | GI50 (SF-539 CNS): 2.1 µM | TGI (SF-539 CNS): 6.65 µM | GI50 (OVCAR-4 ovarian): 3.59 µM | TGI (OVCAR-4 ovarian): 15.8 µM | GI50 (NCI-H23 lung): 3.5 µM | TGI (NCI-H23 lung): 23.5 µM | GI50 (RXF 393 renal): 1.19 µM | TGI (RXF 393 renal): 3.39 µM | GI50 (NCI-H460 lung): 3.24 µM | TGI (NCI-H460 lung): 12.7 µM | GI50 (MDA-MB-231 breast): 2.52 µM | TGI (MDA-MB-231 breast): 7.41 µM | GI50 (HCT-15 colon): 3.03 µM | TGI (HCT-15 colon): 35.1 µM | GI50 (SK-MEL-2 melanoma): 2.79 µM | TGI (SK-MEL-2 melanoma): 5.6 µM | GI50 (CAKI-1 renal): 2.89 µM | TGI (CAKI-1 renal): 9.07 µM | GI50 (SR leukemia): 3.41 µM | TGI (SR leukemia): > 100 µM | GI50 (SN12C renal): 3.57 µM | TGI (SN12C renal): 26.8 µM
